Experiment [1] has as its target T1, human enzyme NAMPT (full length) (Homo sapiens, UniProt P43490).
T1 construct: human enzyme NAMPT (full length)
In words: NMN fluorescence biochemical assay (stimulation of NMN synthesis by NAMPT). The conditions noted are these: for EC50: concentration giving half-maximal activation, read-out: Enzymatic EC50; for Enzymatic Emax: fold change of maximal activation compared to DMSO. The procedure, abridged:
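Full-length human NAMPT (100 nM) was preincubated 15 min at 37 °C with compound in 50 mM Tris-HCl pH 7.5, 10 mM MgCl2, 2 mM DTT, then reacted 1 h at 37 °C with 50 μM NAM, 100 μM PRPP, 4 mM ATP (stated solution concentrations). NMN was derivatised with acetophenone/KOH then formic acid and read at Ex/Em 382/445 nm; EC50 and Emax (fold over DMSO) reported.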

In experiment [2] the test system is endogenous NAMPT in U2OS cells. In words: Cellular NAD+ modulation assay (NAD/NADH-Glo, U2OS cells). Format: cell-based. To be noted: Homo sapiens; for maximal fold induction: read-out: Cellular Emax. The method, boiled down: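 Endogenous NAMPT stimulation in U2OS cells treated with compound dilution series for 24 h at 37 °C. Cells lysed with DTAB base, acid-treated 15 min at 60 °C, neutralized, NAD+ read by NAD/NADH-Glo luminescence after 40 min at room temperature. EC50 and Emax (fold over DMSO) derived.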

Where [3] appears, read: NMN synthesis by purified human NAMPT (100 nM).
The mark [4] stands for this setting: 24 hours incubation with compound.
Where [5] appears, read: NMN fluorescence assay, purified human NAMPT 100 nM.
Where [6] appears, read: 24 hours incubation, cellular NAD+.

Like-named read-outs stand apart in the source and are kept apart here. Where only a bound is given, the exact number is not on record here.

T1 sequence (P43490 whole entry): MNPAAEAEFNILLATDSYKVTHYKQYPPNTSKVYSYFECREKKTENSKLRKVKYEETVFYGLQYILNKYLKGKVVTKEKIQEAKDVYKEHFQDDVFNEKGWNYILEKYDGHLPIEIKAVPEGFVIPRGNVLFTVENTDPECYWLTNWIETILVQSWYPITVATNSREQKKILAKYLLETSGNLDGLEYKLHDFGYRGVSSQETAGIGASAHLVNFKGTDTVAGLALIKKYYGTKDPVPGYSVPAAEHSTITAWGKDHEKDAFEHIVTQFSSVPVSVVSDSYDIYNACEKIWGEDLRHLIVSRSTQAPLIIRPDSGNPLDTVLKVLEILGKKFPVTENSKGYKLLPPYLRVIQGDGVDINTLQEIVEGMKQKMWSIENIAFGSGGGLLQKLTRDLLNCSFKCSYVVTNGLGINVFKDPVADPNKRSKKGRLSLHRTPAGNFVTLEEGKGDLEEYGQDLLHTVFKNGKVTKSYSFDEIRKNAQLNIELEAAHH

As usually defined, the EC50 is the concentration that produces a half-maximal response. `CC(=O)Nc1ccc(CN2Cc3ccccc3C2=O)cc1` [Compound 104, N-(4-((1-oxoisoindolin-2-yl)methyl)phenyl)acetamide]: in experiment [1] (setting [3]), the EC50 was at least 5 µM. In addition, the “Enzymatic Emax” value in experiment [1] is on record as “B (3≥B>2)”. Also, in experiment [2] (setting [4]), the EC50 is 5 to 50 µM and the maximal fold induction is above 1.5.
In the case of `Cn1ncc(Cl)c1CC1c2ccccc2C(=O)N1Cc1ccc(O)nc1` (centres unmarked) [Compound 578, 3-[(4-chloro-2-methyl-pyrazol-3-yl)methyl]-2-[(6-hydroxy-3-pyridyl)methyl]isoindolin-1-one], the concentration for a half-maximal effect (EC50) in experiment [1] (setting [5]) was at least 5 µM. Also, the “Enzymatic Emax” value in experiment [1] was “B (3≥B>2)”. In experiment [2] (setting [6]), the EC50 lay within 0.5 to 5 µM and the maximal fold induction lay within 1.2 to 1.5.
In the case of `N#Cc1cccc(F)c1C[C@H]1c2ccccc2C(=O)N1Cc1ccc2[nH]c(=O)oc2c1` [Compound 172, (S)-3-fluoro-2-((3-oxo-2-((2-oxo-2,3-dihydrobenzo[d]oxazol-6-yl)methyl)isoindolin-1-yl)methyl)benzonitrile], in experiment [1] (setting [3]), the EC50 was below 0.5 µM. Also, in experiment [1], the “Enzymatic Emax” value is on record as “B (3≥B>2)”. For the same compound, in experiment [2] (setting [4]), the concentration giving a half-maximal response (EC50) is below 0.5 µM and the maximal fold induction was above 1.5.
For the compound `O=C1c2cc(Br)ccc2CN1Cc1ccc(O)cc1` [Compound 19, 6-bromo-2-(4-hydroxybenzyl) isoindolin-1-one], the 50% effective concentration (EC50) in experiment [1] (setting [3]) is at least 5 µM. For the same compound, in experiment [1], the “Enzymatic Emax” value is on record as “A (A>3)”. Moreover, in experiment [2] (setting [4]), the EC50 lay in the range of 0.5 to 5 µM and the maximal fold induction is 1.2 to 1.5.
In the same order, the values of `O=C1c2ncccc2CN1Cc1ccc(O)cc1` [Compound 40, 6-(4-hydroxybenzyl)-5,6-dihydro-7H-pyrrolo[3,4-b]pyridin-7-one] are at least 5 µM, “B (3≥B>2)”, 5 to 50 µM and 1.2 to 1.5.
Take `COc1ccc(CN2C(=O)c3ccc(C4CC4)cc3C2Cc2c(Cl)cnn2C)cc1` (centres unmarked) [Compound 624, 3-((4-chloro-1-methyl-1H-pyrazol-5-yl)methyl)-5-cyclopropyl-2-(4-methoxybenzyl)isoindolin-1-one]: the EC50 in experiment [1] (setting [5]) and in experiment [2] (setting [6]) was 0.5 to 5 µM each time. Moreover, in experiment [1], the “Enzymatic Emax” value is listed as “B (3≥B>2)”. In experiment [2] (setting [6]), the maximal fold induction lay within 1.2 to 1.5.
With `CC1c2ccccc2C(=O)N1Cc1ccc(O)cc1` (centres unmarked) [Compound 31, 2-(4-hydroxybenzyl)-3-methylisoindolin-1-one], the EC50 in experiment [1] (setting [3]) and in experiment [2] (setting [4]) was 0.5 to 5 µM in each case. Also, in experiment [1], the “Enzymatic Emax” value is on record as “A (A>3)”. For the same compound, the maximal fold induction in experiment [2] (setting [4]) is above 1.5.
In the case of `CCOc1ccccc1CC1c2ccccc2C(=O)N1Cc1ccc2[nH]c(=O)oc2c1` (centres unmarked) [Compound 166, 6-((1-(2-ethoxybenzyl)-3-oxoisoindolin-2-yl)methyl)benzo[d]oxazol-2(3H)-one], the half-maximal effective concentration (EC50) in experiment [1] (setting [3]) and in experiment [2] (setting [4]) was 0.5 to 5 µM each time. Also, the “Enzymatic Emax” value in experiment [1] was “B (3≥B>2)”. The maximal fold induction in experiment [2] (setting [4]) lay within 1.2 to 1.5.
Regarding `Cn1nc(OC(F)F)c(Cl)c1CC1c2ccccc2C(=O)N1Cc1ccc2[nH]nnc2c1` (centres unmarked) [Compound 397, 2-((1H-benzo[d][1,2,3]triazol-5-yl)methyl)-3-((4-chloro-3-(difluoromethoxy)-1-methyl-1H-pyrazol-5-yl)methyl)isoindolin-1-one], the EC50 in experiment [1] (setting [5]) is below 0.5 µM. Further, in experiment [1], the “Enzymatic Emax” value was “B (3≥B>2)”. Also, in experiment [2] (setting [6]), the concentration for a half-maximal effect (EC50) was below 0.5 µM and the maximal fold induction is above 1.5.
Consider `CC1c2cc(CN3CCC3)ccc2C(=O)N1Cc1ccc2[nH]c(=O)oc2c1` (single isomer, unassigned) [Compound 274], for which the EC50 in experiment [1] (setting [3]) is at least 5 µM. Moreover, in experiment [1], the “Enzymatic Emax” value was “B (3≥B>2)”. In experiment [2] (setting [4]), the EC50 fell in the range of 5 to 50 µM and the maximal fold induction was 1.2 to 1.5.
On the same counts, the results for `O=C1c2ccccc2C(Cc2ncccc2Br)N1Cc1ccc2[nH]ncc2c1` (centres unmarked) [Compound 240, 2-((1H-indazol-5-yl)methyl)-3-((3-bromopyridin-2-yl)methyl)isoindolin-1-one] are below 0.5 µM, “B (3≥B>2)”, below 0.5 µM and 1.2 to 1.5.

The record behind these values is patent US20260078130A1, “NAMPT MODULATORS, PREPARATIONS, AND USES THEREOF” (SIRONAX LTD., priority 2022, published 2026).
